Results taken from patent publication US20220259202A1, “1-(4-(AMINOMETHYL)BENZYL)-2-BUTYL-2H-PYRAZOLO[3,4-C]QUINOLIN-4-AMINE DERIVATIVES AND RELATED COMPOUNDS AS TOLL-LIKE RECEPTOR (TLR) 7/8 AGONISTS, AS WELL AS ANTIBODY DRUG CONJUGATES THEREOF FOR USE IN CANCER THERAPY AND DIAGNOSIS” (SUTRO BIOPHARMA, INC., priority 2019, published 2022).

Key:
Format in all cases: cell-based
human TLR8 = molecular target: T1, human TLR8 (Homo sapiens, UniProt Q9NR97); assay: HEK293 SEAP reporter assay, human TLR8 (Biological Example 1); settings: HEK293-humanTLR8 reporter cells, 4 hrs; read-out: hTLR8 EC50
T1 construct: host or cells: HEK293
T1 sequence (Q9NR97 27-1041): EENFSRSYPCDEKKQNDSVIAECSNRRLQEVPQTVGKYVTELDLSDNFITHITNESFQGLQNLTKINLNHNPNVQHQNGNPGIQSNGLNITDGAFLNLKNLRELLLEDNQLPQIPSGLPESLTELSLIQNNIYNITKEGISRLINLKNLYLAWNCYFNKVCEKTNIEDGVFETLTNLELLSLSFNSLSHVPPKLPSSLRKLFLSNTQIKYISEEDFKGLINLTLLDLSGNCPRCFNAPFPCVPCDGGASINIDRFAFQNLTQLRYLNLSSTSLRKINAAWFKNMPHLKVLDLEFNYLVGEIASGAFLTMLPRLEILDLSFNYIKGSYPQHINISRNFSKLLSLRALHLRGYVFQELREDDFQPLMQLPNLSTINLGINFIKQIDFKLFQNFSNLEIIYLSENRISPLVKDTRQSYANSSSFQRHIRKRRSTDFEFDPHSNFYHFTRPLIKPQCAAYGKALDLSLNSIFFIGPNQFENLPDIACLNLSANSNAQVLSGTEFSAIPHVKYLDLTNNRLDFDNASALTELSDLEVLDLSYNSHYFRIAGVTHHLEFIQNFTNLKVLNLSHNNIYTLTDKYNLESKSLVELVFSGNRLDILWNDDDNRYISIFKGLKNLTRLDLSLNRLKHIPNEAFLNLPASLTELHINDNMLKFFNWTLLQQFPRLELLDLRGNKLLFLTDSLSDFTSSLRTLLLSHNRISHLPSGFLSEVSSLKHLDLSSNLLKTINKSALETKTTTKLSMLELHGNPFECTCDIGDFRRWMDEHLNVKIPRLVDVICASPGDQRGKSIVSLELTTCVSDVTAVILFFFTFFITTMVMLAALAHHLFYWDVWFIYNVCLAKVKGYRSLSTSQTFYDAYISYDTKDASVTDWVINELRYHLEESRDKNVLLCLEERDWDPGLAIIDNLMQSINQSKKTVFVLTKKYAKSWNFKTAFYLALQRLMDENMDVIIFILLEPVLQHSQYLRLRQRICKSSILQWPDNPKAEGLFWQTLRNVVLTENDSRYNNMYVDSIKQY
Experimental: In this example, the activity of the TLR7 agonists to activate human TLR7, hTLR7 (or human TLR8, hTLR8, or mouse TLR7, mTLR7) pathway was evaluated on HEK293 reporter cells transfected with human TLR7 (or mouse TLR7 or human TLR8) and an inducible SEAP (secreted embryonic alkaline phosphatase) reporter gene. The SEAP reporter gene is placed under the control of the IFN-β minimal promoter fused to five NF-κB and AP-1-binding sites. Stimulation with a TLR7 agonist activates NF-KB and AP-1 which induces the production of SEAP. Levels of SEAP was determined with HEK-Blue Detection medium.
HEK293-humanTLR7, HEK293-mouseTLR7 and HEK293-humanTLR8 reporter cell lines were purchased from Invivogen and cell lines were maintained in manufacture recommended culture medium with required supplemental antibiotics. On the day of assay, the cells were harvested with Accutase and counted by the Vi-CELL Cell Viability Analyzers. Cells were re-suspended in HEK blue detection medium and a total of 10000 cells were seeded in each well of a 384-well flat bottom plate. Serial dilutions of TLR7 agonists free drugs (1:3 serial dilution starting from 5 μM) was added into treatment wells. Assay plates were cultured at 37° C. in a CO2 incubator for […]. HEK-Blue™ Detection medium changes to a purple/blue color in the presence of secreted SEAP, which can be detected by spectrophotometry at 620-655 nm. […]

KB cells = assay: In vitro cytotoxicity, cell proliferation assay (Cell Titer-Glo); settings: concentration up to 1 μM, 120 hrs
Experimental: The cytotoxicity of Compound 1 was tested in a cell proliferation assay on KB cells. KB cells were obtained from ATCC and were maintained in Ham's F-12: high glucose DMEM (50:50) (Corning) supplemented with 10% heat-inactivated fetal bovine serum (Corning), 1% Penicillin/Streptomycin (Corning) and 2 mmol/L-glutamax (Thermo Fisher Scientific). One day before the assay, KB cells were harvested with Accutase and a total of 625 cells were seeded in each well of a 384-well flat bottom white polystyrene plate. Compound 1 was formulated at 2-fold starting concentration in the cell culture medium. Serial dilutions of Compound 1 (1:4 serial dilution starting from 1000 nM) was added into treatment wells. Assay plates were cultured at 37° C. in a CO2 incubator for 120 hrs before assay. For cell viability measurement, 30 μL of Cell Titer-Glo® reagent (Promega Corp. Madison, Wis.) was added into each well, and plates were processed as per product instructions. Relative luminescence was measured on an ENVISION® plate reader (Perkin-Elmer; Waltham, Mass.). Relative luminescence readings were converted to percent viability using untreated cells as controls. Data was fitted with non-linear regression analysis, using a log(inhibitor) vs. response-variable slope, 4-parameter fit with GraphPad Prism (GraphPad v 5.0, Software; San Diego, California).

human PBMCs = assay: Compound-induced cytokine release (ELISA); settings: IL-6, MCP-1, IL1Ra (FIG. 4A-4C); 24 hrs
Experimental: (§1) This example evaluates the ability of Compound 1 to induce cytokine release in human PBMCs, cyno PBMCs and mouse splenocytes. Compound A and resiquimod, above, were used as controls in the assays.
(§2) Human and cyno PBMCs, mouse splenocytes were isolated as described in previous example. On the day of the assay, 300k of PBMC or splenocytes in 50 μL of culture medium were seeded in 96-well cell culture plates. 50 μL of the test articles (formulated at 2× of starting concentration) were then added into the well. The cell mixtures were co-cultured in the presence of test articles and 10 μg/mL LPS-RS for 24 hrs (human PBMCs) or 48 hr (cyno PBMCs and mouse splenocytes). Released cytokines in cell culture medium were measured by ELISA.

mouse splenocytes = assay: Compound-induced cytokine release (ELISA); settings: IL-6, MCP-1, TNFα and IP-10 (FIG. 6A-6D); 48 hr
Experimental: as §1, §2

- EC50 (human TLR8): 820 nM
Compound: CCCCn1nc2c(N)nc3ccccc3c2c1Cc1ccc(CN)cc1 [Compound 1, 1-(4-(aminomethyl)benzyl)-2-butyl-2H-pyrazolo[3,4-c]quinolin-4-amine]
- cytotoxicity on KB cells (KB cells): did not show any cytotoxicity
- cytokine release from human PBMCs (human PBMCs): stimulated strong
- cytokine release from mouse splenocytes (mouse splenocytes): stimulated strong
